Reference: ChEMBL document CHEMBL1201862, “PubChem BioAssay data set” (2004)
Activity calls are given as the source filed them.

Columns and labels:
[1] = target: Insulin-like growth factor 1 receptor (Homo sapiens, UniProt P08069); assay: Navigating the Kinome. Panel member name: IGF1R; assay type: functional
[2] = target: Leukocyte tyrosine kinase receptor (Homo sapiens, UniProt P29376); assay: Navigating the Kinome. Panel member name: LTK; assay type: functional
[3] = target: Glycogen synthase kinase-3 alpha (Homo sapiens, UniProt P49840); assay type: functional;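 further: GSK3A result taken from a broad kinome-wide kinase panel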
[4] = target: Cyclin-dependent kinase 5 (Homo sapiens, UniProt Q00535); assay type: functional;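 further: CDK5 measured as one member of a kinase profiling panel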
[5] = target: Tyrosine-protein kinase Lck (Homo sapiens, UniProt P06239); assay type: functional;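 further: lck was assayed as one member of a kinase panel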
[6] = target: Casein kinase I isoform alpha (Homo sapiens, UniProt P48729); assay type: functional
Focal adhesion kinase 1 = Focal adhesion kinase 1 (Homo sapiens, UniProt Q05397); assay type: functional;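 further: measured as one member of a kinome panel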
[7] = target: Vascular endothelial growth factor receptor 1 (Homo sapiens, UniProt P17948); assay type: functional;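 further: measured within a kinome-wide profiling panel, FLT1 as the panel member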
[8] = target: Hepatocyte growth factor receptor (Homo sapiens, UniProt P08581); assay type: functional;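 further: kinase panel profiling across the kinome, with MET as the panel member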
[9] = target: Macrophage-stimulating protein receptor (Homo sapiens, UniProt Q04912); assay: Navigating the Kinome. Panel member name: MST1R; assay type: functional
[10] = target: Fibroblast growth factor receptor 1 (Homo sapiens, UniProt P11362); assay type: functional
[11] = target: Leucine-rich repeat serine/threonine-protein kinase 2 (Homo sapiens, UniProt Q5S007); assay type: functional;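 further: value from a broad kinome-wide panel profiling study in which LRRK2 was one of the kinases tested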
[12] = target: Tyrosine-protein kinase JAK2 (Homo sapiens, UniProt O60674); assay type: functional;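 further: JAK2 tested as one member of a kinase panel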
[13] = target: Dual specificity mitogen-activated protein kinase kinase 2 (Homo sapiens, UniProt P36507); assay: Navigating the Kinome. Panel member name: MAP2K2; assay type: functional
[14] = target: Rho-associated protein kinase 1 (Homo sapiens, UniProt Q13464); assay type: functional;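 further: measured within a broad kinome-wide panel profiling many kinases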
[15] = target: Mitogen-activated protein kinase kinase kinase kinase 2 (Homo sapiens, UniProt Q12851); assay type: functional;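 further: measured as one member of a kinome-wide kinase panel, with MAP4K2 as the panel entry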
[16] = target: Tyrosine-protein kinase receptor TYRO3 (Homo sapiens, UniProt Q06418); assay type: functional;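 further: TYRO3 value obtained as one member of a kinome-wide profiling panel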
[17] = target: Platelet-derived growth factor receptor alpha (Homo sapiens, UniProt P16234); assay: Navigating the Kinome. Panel member name: PDGFRA; assay type: functional
LIM domain kinase 1 = LIM domain kinase 1 (Homo sapiens, UniProt P53667); assay: Navigating the Kinome. Panel member name: LIMK1; assay type: functional
[18] = target: Serine/threonine-protein kinase D3 (Homo sapiens, UniProt O94806); assay type: functional;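 further: determined within a kinase panel screen, with PRKCN as the panel member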
Activin receptor type-1 = Activin receptor type-1 (Homo sapiens, UniProt Q04771); assay: Navigating the Kinome. Panel member name: ACVR1; assay type: functional
[19] = target: Dual specificity protein kinase CLK2 (Homo sapiens, UniProt P49760); assay type: functional
[20] = target: High affinity nerve growth factor receptor (Homo sapiens, UniProt P04629); assay type: functional;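 further: NTRK1 tested as one member of a kinome-wide profiling panel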
[21] = target: Tyrosine-protein kinase Fyn (Homo sapiens, UniProt P06241); assay type: functional
[22] = target: Protein kinase C theta type (Homo sapiens, UniProt Q04759); assay: Navigating the Kinome. Panel member name: PRKCQ; assay type: functional
[23] = target: Mitogen-activated protein kinase 9 (Homo sapiens, UniProt P45984); assay type: functional;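 further: value from a kinome panel profiling assay, MAPK9 panel entry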
CAAX prenyl protease 2 = target: T1, CAAX prenyl protease 2 (Homo sapiens, UniProt Q9Y256); assay: inhibition of Ras-converting CAAX protease Rce1 – biochemical, yeast membranes, quenched-peptide fluorescence, cherry-pick, dose response (AID 588849)
T1 sequence (Q9Y256 whole entry): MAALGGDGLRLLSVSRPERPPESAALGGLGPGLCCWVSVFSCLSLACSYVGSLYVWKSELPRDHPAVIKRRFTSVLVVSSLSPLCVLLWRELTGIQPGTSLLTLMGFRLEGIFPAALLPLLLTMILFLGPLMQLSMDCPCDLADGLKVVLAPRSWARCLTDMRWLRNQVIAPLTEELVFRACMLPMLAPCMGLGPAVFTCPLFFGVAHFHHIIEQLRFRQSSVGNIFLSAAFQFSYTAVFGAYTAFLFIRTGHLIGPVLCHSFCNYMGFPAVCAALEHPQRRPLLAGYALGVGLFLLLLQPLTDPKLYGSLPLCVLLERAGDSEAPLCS

[24] = Vero cell cytotoxicity, dose response, cytotoxicity control for M. tuberculosis growth inhibitor project, Vero cells, purified and synthesized compounds, set 5 (AID 504909); assay type: functional; conditions: Mycobacterium tuberculosis
[25] = A Cell Based Secondary Assay to Explore Cytotoxicity in HepG2 Cells of Compounds that Modulate Mycobacterium tuberculosis in Media Containing Glycerol versus Media without Glycerol (2).; assay type: functional
[26] = THP-1 cell cytotoxicity, cytotoxicity control, set 4 (AID 504911); assay type: functional; conditions: Mycobacterium tuberculosis
[27] = THP-1 cell cytotoxicity, dose response, cytotoxicity control, set 3 (AID 504852); assay type: functional; conditions: Mycobacterium tuberculosis
[28] = microbe, parasite or virus in culture; assay type: functional; conditions: Mycobacterium tuberculosis
[29] = Vero cell cytotoxicity, dose response, cytotoxicity control for M. tuberculosis growth inhibitor project, Vero cells, purified and synthesized compounds, set 4 (AID 504854); assay type: functional; conditions: Mycobacterium tuberculosis
[30] = A Cell Based Secondary Assay to Explore Cytotoxicity in THP-1 Cells of Compounds that Modulate Mycobacterium tuberculosis in Media Containing Glycerol versus Media without Glycerol (2).; assay type: functional
[31] = Vero cell cytotoxicity, cytotoxicity control for M. tuberculosis inhibitor project, purified and synthesized samples, set 3 (AID 504684); assay type: functional
[32] = HepG2 cell cytotoxicity, dose response, cytotoxicity control, set 3 (AID 504853); assay type: functional; conditions: Mycobacterium tuberculosis
CAAX prenyl protease 1 = CAAX prenyl protease 1 (Saccharomyces cerevisiae S288c, UniProt P47154); assay: yeast CAAX protease Ste24 inhibition – biochemical, S. cerevisiae, plate reader, cherry-pick, dose response (AID 488815)
[33] = target: Protein disulfide-isomerase (Homo sapiens, UniProt P07237); assay: inhibition of PDI-driven insulin aggregation – biochemical, turbidity, absorbance, cherry-picked samples, dose response (AID 602350); assay type: functional
[34] = target: Mitogen-activated protein kinase 13 (Homo sapiens, UniProt O15264); assay type: functional
[35] = target: T2, Neuropeptides B/W receptor type 1 (Homo sapiens, UniProt P48145); assay: human NPBW1 receptor blockade, IC50 – cell-based, fluorescence, dose response, set 6, late-stage follow-up (AID 588583); assay type: functional
T2 sequence (P48145 whole entry): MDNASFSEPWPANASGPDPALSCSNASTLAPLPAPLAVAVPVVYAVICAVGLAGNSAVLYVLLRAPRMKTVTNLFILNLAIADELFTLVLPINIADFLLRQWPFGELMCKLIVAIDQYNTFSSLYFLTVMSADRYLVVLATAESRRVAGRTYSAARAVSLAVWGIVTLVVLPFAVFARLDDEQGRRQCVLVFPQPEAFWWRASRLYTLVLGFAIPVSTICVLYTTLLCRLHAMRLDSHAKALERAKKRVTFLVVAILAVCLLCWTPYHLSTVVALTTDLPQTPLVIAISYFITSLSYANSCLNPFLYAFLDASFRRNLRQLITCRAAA

[36] = target: Melanin-concentrating hormone receptor 1 (Homo sapiens, UniProt Q99705); assay: Late-stage fluorescence-based counterscreen for antagonists of the G-protein coupled receptor 7 (GPR7): cell-based dose response assay to identify antagonists of the melanin-concentrating hormone receptor 1 (MCHR1) Set 6.; assay type: functional
[37] = target: cAMP-dependent protein kinase catalytic subunit alpha (Homo sapiens, UniProt P17612); assay type: functional
[38] = target: Ribosomal protein S6 kinase alpha-3 (Homo sapiens, UniProt P51812); assay type: functional;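 further: measured within a kinome-wide profiling panel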
[39] = target: Serine/threonine-protein kinase Chk1 (Homo sapiens, UniProt O14757); assay type: functional;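 further: measured as one member of a kinome-wide kinase profiling panel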
[40] = target: Protein kinase C delta type (Homo sapiens, UniProt Q05655); assay type: functional
[41] = target: Serine/threonine-protein kinase Chk2 (Homo sapiens, UniProt O96017); assay type: functional;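 further: CHEK2 entry within a kinome-wide screening panel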
[42] = target: MAP/microtubule affinity-regulating kinase 3 (Homo sapiens, UniProt P27448); assay type: functional;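 further: MARK3 affinity measured as one member of a kinome panel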
Aurora kinase A = Aurora kinase A (Homo sapiens, UniProt O14965); assay type: functional;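 further: value from the Navigating the Kinome kinase panel profiling, panel entry STK6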

Chain of Platelet-derived growth factor receptor alpha (P16234 whole entry, the tested form may be a part): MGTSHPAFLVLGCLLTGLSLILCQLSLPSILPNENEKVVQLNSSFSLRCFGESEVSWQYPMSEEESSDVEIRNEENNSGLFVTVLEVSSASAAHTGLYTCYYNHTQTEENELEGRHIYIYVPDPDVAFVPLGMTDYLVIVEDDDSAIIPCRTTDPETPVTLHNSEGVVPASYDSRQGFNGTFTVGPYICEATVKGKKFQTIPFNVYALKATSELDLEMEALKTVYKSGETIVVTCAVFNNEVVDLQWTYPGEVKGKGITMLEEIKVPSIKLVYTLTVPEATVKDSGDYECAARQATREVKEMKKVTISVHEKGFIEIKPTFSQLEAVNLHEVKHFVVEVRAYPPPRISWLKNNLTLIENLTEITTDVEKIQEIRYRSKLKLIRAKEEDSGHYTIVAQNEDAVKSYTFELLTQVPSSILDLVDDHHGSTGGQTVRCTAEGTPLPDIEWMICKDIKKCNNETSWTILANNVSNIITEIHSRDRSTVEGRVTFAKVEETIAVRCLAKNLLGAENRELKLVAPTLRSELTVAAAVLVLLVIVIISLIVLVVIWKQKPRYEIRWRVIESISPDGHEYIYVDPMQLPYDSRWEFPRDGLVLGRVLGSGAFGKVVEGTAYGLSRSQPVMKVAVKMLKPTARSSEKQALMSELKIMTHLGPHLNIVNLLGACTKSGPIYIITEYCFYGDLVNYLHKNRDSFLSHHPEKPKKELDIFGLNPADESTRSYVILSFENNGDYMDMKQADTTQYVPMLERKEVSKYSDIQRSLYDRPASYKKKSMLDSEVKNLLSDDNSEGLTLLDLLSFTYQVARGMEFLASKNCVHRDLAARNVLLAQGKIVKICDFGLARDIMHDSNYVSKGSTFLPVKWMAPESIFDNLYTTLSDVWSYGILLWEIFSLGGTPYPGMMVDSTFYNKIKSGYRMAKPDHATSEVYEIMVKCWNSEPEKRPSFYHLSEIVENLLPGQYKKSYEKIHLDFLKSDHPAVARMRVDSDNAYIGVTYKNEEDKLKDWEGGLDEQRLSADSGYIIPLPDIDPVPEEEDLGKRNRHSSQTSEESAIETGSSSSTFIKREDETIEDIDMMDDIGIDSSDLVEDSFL
Chain of Dual specificity mitogen-activated protein kinase kinase 2 (P36507 whole entry): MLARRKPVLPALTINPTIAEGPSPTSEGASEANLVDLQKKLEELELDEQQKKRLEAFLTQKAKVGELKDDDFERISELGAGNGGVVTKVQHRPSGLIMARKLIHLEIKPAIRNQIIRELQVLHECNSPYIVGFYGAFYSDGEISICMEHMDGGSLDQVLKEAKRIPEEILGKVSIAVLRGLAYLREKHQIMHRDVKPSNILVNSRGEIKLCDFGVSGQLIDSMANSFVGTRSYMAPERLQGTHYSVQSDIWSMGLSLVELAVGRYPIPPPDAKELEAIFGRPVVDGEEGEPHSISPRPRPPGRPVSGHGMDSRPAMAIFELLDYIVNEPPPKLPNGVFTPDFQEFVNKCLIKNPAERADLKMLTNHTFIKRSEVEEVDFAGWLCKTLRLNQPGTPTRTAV
Chain of Mitogen-activated protein kinase 9 (P45984 whole entry): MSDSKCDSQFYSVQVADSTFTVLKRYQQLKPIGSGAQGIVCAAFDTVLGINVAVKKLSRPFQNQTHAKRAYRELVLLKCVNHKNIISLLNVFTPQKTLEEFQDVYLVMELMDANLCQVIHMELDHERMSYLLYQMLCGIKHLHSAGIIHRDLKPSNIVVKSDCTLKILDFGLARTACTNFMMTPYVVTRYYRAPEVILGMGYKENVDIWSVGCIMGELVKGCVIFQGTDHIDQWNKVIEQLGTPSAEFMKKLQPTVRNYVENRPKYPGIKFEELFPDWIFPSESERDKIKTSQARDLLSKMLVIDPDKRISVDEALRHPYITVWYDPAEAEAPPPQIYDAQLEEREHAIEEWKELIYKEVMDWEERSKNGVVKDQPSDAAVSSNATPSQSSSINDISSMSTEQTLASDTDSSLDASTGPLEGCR
Chain of Leukocyte tyrosine kinase receptor (P29376 whole entry): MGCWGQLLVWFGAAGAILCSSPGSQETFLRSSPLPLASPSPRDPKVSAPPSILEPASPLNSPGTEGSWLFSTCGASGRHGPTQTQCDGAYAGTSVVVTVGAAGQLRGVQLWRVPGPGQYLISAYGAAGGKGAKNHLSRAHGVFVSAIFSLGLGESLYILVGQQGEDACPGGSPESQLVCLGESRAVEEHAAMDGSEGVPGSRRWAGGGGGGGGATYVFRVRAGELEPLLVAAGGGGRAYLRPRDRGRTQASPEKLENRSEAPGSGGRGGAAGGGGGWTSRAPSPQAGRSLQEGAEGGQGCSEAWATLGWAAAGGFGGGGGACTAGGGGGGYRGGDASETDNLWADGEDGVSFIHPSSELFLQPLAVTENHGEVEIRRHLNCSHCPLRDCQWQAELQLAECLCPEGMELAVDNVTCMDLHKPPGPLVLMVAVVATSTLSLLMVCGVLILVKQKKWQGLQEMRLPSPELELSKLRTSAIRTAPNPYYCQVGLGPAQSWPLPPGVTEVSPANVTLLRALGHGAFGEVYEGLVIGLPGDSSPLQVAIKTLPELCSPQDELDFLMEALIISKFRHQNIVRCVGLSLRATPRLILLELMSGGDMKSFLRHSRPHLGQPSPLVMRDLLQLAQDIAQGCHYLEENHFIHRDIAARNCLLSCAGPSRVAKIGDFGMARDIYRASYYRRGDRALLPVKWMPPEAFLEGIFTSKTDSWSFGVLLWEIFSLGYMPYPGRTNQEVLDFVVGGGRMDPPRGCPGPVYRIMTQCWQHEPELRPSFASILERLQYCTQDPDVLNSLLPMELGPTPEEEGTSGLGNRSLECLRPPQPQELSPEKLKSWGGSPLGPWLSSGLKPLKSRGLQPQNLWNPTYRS
Chain of Serine/threonine-protein kinase Chk2 (O96017 whole entry): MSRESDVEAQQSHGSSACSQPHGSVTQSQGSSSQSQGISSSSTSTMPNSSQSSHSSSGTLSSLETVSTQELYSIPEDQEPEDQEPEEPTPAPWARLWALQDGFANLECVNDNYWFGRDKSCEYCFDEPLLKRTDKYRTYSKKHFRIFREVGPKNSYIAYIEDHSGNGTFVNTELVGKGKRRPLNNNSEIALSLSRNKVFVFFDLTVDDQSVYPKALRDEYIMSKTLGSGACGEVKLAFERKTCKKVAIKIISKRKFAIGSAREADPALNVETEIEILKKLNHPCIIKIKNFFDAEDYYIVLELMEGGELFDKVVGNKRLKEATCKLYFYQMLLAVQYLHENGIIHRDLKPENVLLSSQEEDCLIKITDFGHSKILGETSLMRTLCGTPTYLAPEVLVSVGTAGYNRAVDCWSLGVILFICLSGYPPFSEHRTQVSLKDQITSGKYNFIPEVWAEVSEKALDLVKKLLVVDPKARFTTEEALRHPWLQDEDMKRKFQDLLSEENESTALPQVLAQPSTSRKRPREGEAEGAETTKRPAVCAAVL
Chain of LIM domain kinase 1 (P53667 whole entry, the tested form may be a part): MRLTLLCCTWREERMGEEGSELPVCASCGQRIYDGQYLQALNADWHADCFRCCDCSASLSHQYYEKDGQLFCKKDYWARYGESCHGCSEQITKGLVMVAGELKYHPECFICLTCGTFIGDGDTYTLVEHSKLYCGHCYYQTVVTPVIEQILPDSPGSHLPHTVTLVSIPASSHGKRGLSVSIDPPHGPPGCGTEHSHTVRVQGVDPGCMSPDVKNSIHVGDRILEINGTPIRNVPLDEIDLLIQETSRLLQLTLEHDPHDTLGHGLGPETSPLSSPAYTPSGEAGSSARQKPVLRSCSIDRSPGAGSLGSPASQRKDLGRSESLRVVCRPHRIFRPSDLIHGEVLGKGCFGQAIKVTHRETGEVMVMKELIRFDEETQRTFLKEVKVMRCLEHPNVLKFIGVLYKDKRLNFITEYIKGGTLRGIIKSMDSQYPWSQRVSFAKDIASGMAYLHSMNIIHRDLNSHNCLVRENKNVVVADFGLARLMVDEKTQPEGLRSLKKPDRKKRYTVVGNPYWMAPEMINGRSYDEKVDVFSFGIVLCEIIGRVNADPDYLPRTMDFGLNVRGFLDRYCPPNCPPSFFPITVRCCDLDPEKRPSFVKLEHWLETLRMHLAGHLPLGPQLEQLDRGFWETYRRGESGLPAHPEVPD
Chain of Activin receptor type-1 (Q04771 whole entry): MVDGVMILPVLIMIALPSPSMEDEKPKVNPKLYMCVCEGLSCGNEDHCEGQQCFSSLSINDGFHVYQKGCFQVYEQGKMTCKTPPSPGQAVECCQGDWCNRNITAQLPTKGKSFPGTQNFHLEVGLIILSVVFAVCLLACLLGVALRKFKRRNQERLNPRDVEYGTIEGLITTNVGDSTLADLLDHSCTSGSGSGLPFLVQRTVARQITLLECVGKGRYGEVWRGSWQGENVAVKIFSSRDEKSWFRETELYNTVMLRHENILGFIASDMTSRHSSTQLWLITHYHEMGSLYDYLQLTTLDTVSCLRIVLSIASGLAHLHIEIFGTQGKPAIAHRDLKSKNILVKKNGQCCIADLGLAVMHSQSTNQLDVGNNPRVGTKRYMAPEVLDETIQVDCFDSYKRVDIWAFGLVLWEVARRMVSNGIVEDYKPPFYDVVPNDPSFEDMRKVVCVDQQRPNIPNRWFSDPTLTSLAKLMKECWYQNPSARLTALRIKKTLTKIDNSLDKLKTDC
Chain of Protein disulfide-isomerase (P07237 whole entry): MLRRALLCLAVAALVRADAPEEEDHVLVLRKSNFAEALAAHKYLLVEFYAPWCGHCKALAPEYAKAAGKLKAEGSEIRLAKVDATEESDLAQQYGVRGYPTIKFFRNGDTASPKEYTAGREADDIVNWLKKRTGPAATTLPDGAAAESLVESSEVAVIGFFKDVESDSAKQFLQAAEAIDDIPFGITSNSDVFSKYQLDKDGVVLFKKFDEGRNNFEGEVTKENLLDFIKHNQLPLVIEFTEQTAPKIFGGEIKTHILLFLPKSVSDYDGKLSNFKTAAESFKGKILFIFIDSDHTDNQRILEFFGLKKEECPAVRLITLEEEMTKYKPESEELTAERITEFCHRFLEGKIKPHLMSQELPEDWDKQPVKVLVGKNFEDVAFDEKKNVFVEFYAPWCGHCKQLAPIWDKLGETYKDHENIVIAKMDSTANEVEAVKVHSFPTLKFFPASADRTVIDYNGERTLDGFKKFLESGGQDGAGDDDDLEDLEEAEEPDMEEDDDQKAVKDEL

In the case of `Nc1ncnc2c1c(-c1cnc3[nH]ccc3c1)nn2C1CCCC1`, the Ki [1] is reported as 398 nM (active), the Ki [2] is reported as 158 nM (active) and the Ki [3] is reported as 2000 nM (active). For the same compound, the Ki [4] was 1260 nM (active), the Ki [5] was 158 nM (active) and the Ki [6] was 39.8 nM (active). The Ki (Focal adhesion kinase 1) was 1260 nM (active), the Ki [7] was 63.1 nM (active) and the Ki [8] was > 2510 nM (inactive). The Ki [9] was 126 nM (active), the Ki [10] was 100 nM (active) and the Ki [11] was 63.1 nM (active). For the same compound, the Ki [12] was 1000 nM (active), the Ki [13] was 1000 nM (active) and the Ki [14] was 200 nM (active). The Ki [15] was 316 nM (active), the Ki [16] was 794 nM (active) and the Ki [17] was 316 nM (active). The Ki (LIM domain kinase 1) was 158 nM (active), the Ki [18] was 251 nM (active) and the Ki (Activin receptor type-1) was 63.1 nM (active). For the same compound, the Ki [19] was 1000 nM (active), the Ki [20] was > 3160 nM (inactive) and the Ki [21] was 79.4 nM (active). For the same compound, the Ki [22] was 501 nM (active) and the Ki [23] was 1260 nM (active).
For `Cc1cc(Br)ccc1NC(=O)c1cnc(N2CCN(c3ccccn3)CC2)c2ccccc12`, the AC50 (CAAX prenyl protease 2) was 8930 nM (active), the CC50 [24] was > 100000 nM (active) and the CC50 [25] was > 50000 nM (active). For the same compound, the CC50 [26] was 13200 nM (active), the CC50 [27] was 39800 nM (active) and the CC50 [28] was > 40000 nM (active). The CC50 [29] was 82000 nM (active), the CC50 [30] was 86000 nM (active) and the CC50 [31] was 46300 nM (active). For the same compound, the CC50 [32] was > 50000 nM (active) and the AC50 (CAAX prenyl protease 1) was 7540 nM (active).
For `O=S(=O)(c1ccccc1)N1N=C(c2ccc(O)cc2)CC1c1ccco1` (stereo not drawn), the AC50 [33] was 19500 nM (active).
With `O=C(Nc1cnccn1)Nc1ccnc2c(F)cccc12` the Ki [34] was > 7940 nM (inactive).
With `N#Cc1cccc(C(C#N)c2c(Br)cnn(Cc3cccc4ccccc34)c2=O)c1` (stereo not drawn) the IC50 [35] was ~693 nM (active) and the IC50 [36] was ~693 nM (active).
In the case of `CN(C)c1ncnc2nc[nH]c12` [DIMETHYLADENINE], the Ki [37] is reported as 15800 nM (active), the Ki [38] is reported as 5010 nM (active) and the Ki [39] is reported as 12600 nM (active). The Ki [40] was 12600 nM (active), the Ki [41] was 3980 nM (active) and the Ki [42] was 5010 nM (active). The Ki (Aurora kinase A) was 3980 nM (active).
